# Experimental data taken from patent US20260138961A1, “MODULATORS OF MITOCHONDRIAL DNA REPLICATION” (Pretzel Therapeutics, Inc., priority 2022, published 2026).
# Biological target: T1, POLγA:R309C (Homo sapiens, UniProt P54098, R309C)
# T1 sequence (P54098 1-1239 R309C): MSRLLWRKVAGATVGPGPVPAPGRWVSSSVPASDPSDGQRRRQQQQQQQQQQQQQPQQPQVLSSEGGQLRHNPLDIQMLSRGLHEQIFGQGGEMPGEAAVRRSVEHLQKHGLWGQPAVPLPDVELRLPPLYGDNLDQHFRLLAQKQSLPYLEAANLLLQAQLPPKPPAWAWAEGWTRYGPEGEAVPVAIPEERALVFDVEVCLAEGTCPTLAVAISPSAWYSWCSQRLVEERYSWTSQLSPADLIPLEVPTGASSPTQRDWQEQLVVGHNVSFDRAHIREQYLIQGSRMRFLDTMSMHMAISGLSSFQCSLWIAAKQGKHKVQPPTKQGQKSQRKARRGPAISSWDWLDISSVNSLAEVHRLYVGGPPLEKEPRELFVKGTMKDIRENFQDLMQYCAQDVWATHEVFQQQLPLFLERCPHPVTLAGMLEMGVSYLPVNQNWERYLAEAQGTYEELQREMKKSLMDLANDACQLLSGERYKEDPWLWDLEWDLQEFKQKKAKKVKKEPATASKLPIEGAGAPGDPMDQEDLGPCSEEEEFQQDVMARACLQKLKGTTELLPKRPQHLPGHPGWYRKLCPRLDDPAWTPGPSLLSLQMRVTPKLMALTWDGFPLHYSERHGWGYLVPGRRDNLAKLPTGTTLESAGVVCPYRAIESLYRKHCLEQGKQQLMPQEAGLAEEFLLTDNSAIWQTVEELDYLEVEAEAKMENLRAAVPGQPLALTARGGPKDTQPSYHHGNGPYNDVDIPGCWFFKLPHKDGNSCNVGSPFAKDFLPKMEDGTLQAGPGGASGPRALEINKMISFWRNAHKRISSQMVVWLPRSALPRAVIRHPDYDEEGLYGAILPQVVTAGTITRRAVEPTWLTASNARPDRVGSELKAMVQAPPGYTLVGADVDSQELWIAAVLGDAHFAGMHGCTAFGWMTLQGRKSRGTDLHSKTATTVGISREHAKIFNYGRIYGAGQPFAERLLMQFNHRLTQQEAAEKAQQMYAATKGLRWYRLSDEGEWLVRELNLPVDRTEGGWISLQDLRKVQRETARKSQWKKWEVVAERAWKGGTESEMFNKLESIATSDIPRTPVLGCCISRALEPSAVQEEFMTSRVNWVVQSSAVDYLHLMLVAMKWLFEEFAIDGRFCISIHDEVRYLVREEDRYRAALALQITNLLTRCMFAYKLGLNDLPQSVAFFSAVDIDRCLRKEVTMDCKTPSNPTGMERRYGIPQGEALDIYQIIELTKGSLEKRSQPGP
# T1 sequence (Q9UHN1 1-485 partner): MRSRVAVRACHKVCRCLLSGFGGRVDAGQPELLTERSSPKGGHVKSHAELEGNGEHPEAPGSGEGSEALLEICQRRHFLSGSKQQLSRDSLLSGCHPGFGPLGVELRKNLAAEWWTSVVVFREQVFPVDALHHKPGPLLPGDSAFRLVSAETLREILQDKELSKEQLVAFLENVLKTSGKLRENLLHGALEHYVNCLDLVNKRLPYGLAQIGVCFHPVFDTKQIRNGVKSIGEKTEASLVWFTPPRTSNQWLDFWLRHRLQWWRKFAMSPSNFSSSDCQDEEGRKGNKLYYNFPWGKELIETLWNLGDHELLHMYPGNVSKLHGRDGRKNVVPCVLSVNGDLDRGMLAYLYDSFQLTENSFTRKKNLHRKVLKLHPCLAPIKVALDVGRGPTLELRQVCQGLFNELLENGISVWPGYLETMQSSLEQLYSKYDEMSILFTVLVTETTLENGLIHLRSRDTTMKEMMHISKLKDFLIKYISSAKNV
# Experiment: DNA polymerization assay, POLγA:R309C mutant
# Assay type: biochemical
# Conditions: stimulation of polymerase activity, primed M13mp18 ssDNA, 37° C. 2 hours
# Experimental: DNA Polymerization Assay to Monitor Effects on Human Wildtype POLγ and Four Disease-Causing Mutant Variants of Human POLγ.
# The ability of small molecules to stimulate the polymerase activity of POLγ was analyzed in a quantitative fluorescence SYBR Green I assay with fluorescence intensity (FI) readout.
# In the presence of dNTPs, wild type human POLγ and mutant derivatives thereof were incubated with single-stranded, circular M13mp18 ssDNA hybridized to a short DNA oligonucleotide that functions as a primer for initiation of DNA synthesis. POLγ and mutant derivatives thereof will extend the primer and use the M13mp18 molecule as a template to synthesize long stretches of double-stranded DNA. SYBR Green I, which is a double-stranded DNA-binding dye, was used to quantify formation of double-stranded DNA in the reaction. When bound to double-stranded DNA, SYBR Green I fluorescence increases by up to 100-fold.
# The assay was performed in the 384-well plate format. Upon addition of compounds, changes in double-stranded DNA synthesis activity can be monitored by following effects on fluorescent intensity.
# The reactions also contained the accessory POLγB subunit, and the human mitochondrial single-stranded DNA binding protein (mtSSB).
# The DNA template mixture used in the assay contained 0.5 nM primed M13 mp18 ssDNA, 400 nM mtSSB, 0.1 mM Tris-HCl (pH 8.0), 0.1 mM dNTP, 10 mM MgCl2, 0.1 mg/mL BSA, 1 mM TCEP solution, and 0.02% Triton X-100. The DNA template mixture for the wild type protein contained either 100 μM dNTP, 1 μM dNTP, or 0.1 μM dNTP, designated in Table 2 as 100 μM, 1 μM, and 0.1 μM, respectfully.
# Microplates with compounds (0.1 μL in each well) to be tested in the assay were prepared from 10 mM compound stocks in 100% DMSO, and equal amounts of DMSO without any compound were added to positive and negative control wells.
# The protein mixture was dispensed (5 μL into each well) into compound plates and incubated at 37° C. for 15 minutes. After incubation, 5 μL of the DNA template mixture was dispensed into each well. The plates were then incubated at 37° C. for 2 hours.
# During incubation, a combined stop buffer and detection reagent solution was prepared. The buffer contained 25 mM EDTA (pH 8.0), 0.02% Triton X-100, and SYBR Green I [Invitrogen] diluted 10,000× (for fluorescent readout). EDTA will stop the enzymatic reaction by chelating magnesium ions.
row,Compound,AC50
1,"Cc1ccc(C)c(S(=O)(=O)Nc2cccc(C(=O)N3CCCCC3C#N)c2)c1 (centres unmarked) [Example 2, N-(3-(2-cyanopiperidine-1-carbonyl)phenyl)-2,5-dimethylbenzenesulfonamide]",8 µM
2,"Cc1ccc(C)c(S(=O)(=O)Nc2cccc(C(=O)N3CCCCC3)c2)c1 [Example 3, 2,5-dimethyl-N-(3-(piperidine-1-carbonyl)phenyl)benzene sulfonamide]",28 µM
3,"Cc1ccc(C)c(S(=O)(=O)Nc2cccc(C(=O)N3CCCC[C@@H]3C)c2)c1 [Example 6, (S)-2,5-dimethyl-N-(3-(2-methylpiperidine-1-carbonyl)phenyl)benzenesulfonamide]",13 µM
4,"(R)-2,5-dimethyl-N-(3-(3-methylmorpholine-4-carbonyl)phenyl)benzenesulfonamide [Example 1]",12 µM
5,"Cc1cc(S(=O)(=O)Nc2cc(F)cc(C(=O)N3CCC[C@H]3C)c2)c(C)cc1Cl [Example 13, (R)-4-chloro-N-(3-fluoro-5-(2-methylpyrrolidine-1-carbonyl)phenyl)-2,5-dimethylbenzenesulfonamide]",3 µM
6,"Cc1ccc(C)c(S(=O)(=O)Nc2cccc(C(=O)NCC3CC3)c2)c1 [Example 4, N-(cyclopropylmethyl)-3-((2,5-dimethylphenyl)sulfonamido)benzamide]",25 µM
7,"Cc1ccc(C)c(S(=O)(=O)Nc2cccc(C(=O)N3CCCC[C@H]3C)c2)c1 [Example 5, (R)-2,5-dimethyl-N-(3-(2-methylpiperidine-1-carbonyl)phenyl)benzenesulfonamide]",11 µM
8,"Cc1cc(S(=O)(=O)Nc2cccc(C(=O)N(C)C)c2)c(C)cc1Cl [Example 12, 3-((4-chloro-2,5-dimethylphenyl)sulfonamido)-N,N-dimethylbenzamide]",3 µM
9,"Cc1cc(S(=O)(=O)Nc2cccc(C(=O)N3CCC[C@H]3C)c2)c(C)cc1Cl [Example 10, (R)-4-chloro-2,5-dimethyl-N-(3-(2-methylpyrrolidine-1-carbonyl)phenyl)benzenesulfonamide]",1 µM
10,"Cc1cc(S(=O)(=O)Nc2cccc(C(=O)N3CCCC[C@H]3C)c2)c(C)cc1Cl [Example 9, (R)-4-chloro-2,5-dimethyl-N-(3-(2-methylpiperidine-1-carbonyl)phenyl)benzenesulfonamide]",2 µM
11,"Cc1cc(S(=O)(=O)Nc2cccc(C(=O)NCc3ccccc3)c2)c(C)cc1Cl [Example 11, N-benzyl-3-((4-chloro-2,5-dimethylphenyl)sulfonamido)benzamide]",6 µM
12,"Cc1ccc(C)c(S(=O)(=O)Nc2cccc(C(=O)N[C@@H](C)C3CC3)c2)c1 [Example 8, (S)-N-(1-cyclopropylethyl)-3-((2,5-dimethylphenyl)sulfonamido)benzamide]",4 µM
13,"Cc1ccc(C)c(S(=O)(=O)Nc2cccc(C(=O)N3CCOCC3C#N)c2)c1 (centres unmarked) [Example 7, N-(3-(3-cyanomorpholine-4-carbonyl)phenyl)-2,5-dimethylbenzenesulfonamide]",10 µM
14,"Cc1cc(S(=O)(=O)Nc2cccc(C(=O)N(C)C(C)CO)c2)c(C)cc1Cl (single isomer, unassigned) [Example 14, 3-((4-chloro-2,5-dimethylphenyl)sulfonamido)-N-(1-hydroxypropan-2-yl)-N-methylbenzamide]",13 µM

# Now from value to compound:
row,AC50,Compound
1,58 µM,"Cc1cnc(-c2cc(NS(=O)(=O)c3cc(C)c(Cl)cc3C)ccc2C)s1 [Example 103, 4-chloro-2,5-dimethyl-N-(4-methyl-3-(5-methylthiazol-2-yl)phenyl)benzenesulfonamide]"
2,2 µM,"Cc1cc(S(=O)(=O)Nc2cccc(-c3nccs3)c2)c(C)cc1Cl [Example 16, 4-chloro-2,5-dimethyl-N-(3-(thiazol-2-yl)phenyl)benzenesulfonamide]"
3,8 µM,"Cc1cc(S(=O)(=O)Nc2ccc3c(c2)CC(=O)N3)c(C)cc1Cl [Example 185, 4-chloro-2,5-dimethyl-N-(2-oxoindolin-5-yl)benzenesulfonamide]"
4,2 µM,"Cc1cc(S(=O)(=O)Nc2cccc(-c3ncco3)c2)c(C)cc1Cl [Example 17, 4-chloro-2,5-dimethyl-N-(3-(oxazol-2-yl)phenyl)benzenesulfonamide]"
5,3 µM,"Cc1cc(S(=O)(=O)Nc2cccc(-c3nccn3C)c2)c(C)cc1Cl [Example 19, 4-chloro-2,5-dimethyl-N-(3-(1-methyl-1H-imidazol-2-yl)phenyl)benzenesulfonamide]"
6,> 100 µM,"Cc1cc(S(=O)(=O)Nc2cccc(-c3ncc(C#N)s3)c2)c(C)cc1Cl [Example 96, 4-chloro-N-(3-(5-cyanothiazol-2-yl)phenyl)-2,5-dimethylbenzenesulfonamide]"
7,5 µM,"Cc1cc(S(=O)(=O)Nc2cccc(-c3ccn(C)n3)c2)c(C)cc1Cl [Example 18, 4-chloro-2,5-dimethyl-N-(3-(1-methyl-1H-pyrazol-3-yl)phenyl)benzenesulfonamide]"
8,> 100 µM,"Cc1cnc(-c2ccc(C)c(NS(=O)(=O)c3cc(C)c(Cl)cc3C)c2)s1 [Example 98, 4-chloro-2,5-dimethyl-N-(2-methyl-5-(5-methylthiazol-2-yl)phenyl)benzenesulfonamide]"
9,> 100 µM,"Cc1cnc(-c2ccc(Cl)c(NS(=O)(=O)c3cc(C)c(Cl)cc3C)c2)s1 [Example 102, 4-chloro-N-(2-chloro-5-(5-methylthiazol-2-yl)phenyl)-2,5-dimethylbenzenesulfonamide]"
